Test results taken from patent US20170333522A1, “EXPRESSION AND FUNCTION OF GPR64/ADGRG2 IN ENDOCRINE SYSTEMS AND METHODS TO TARGET IT THERAPEUTICALLY” (priority 2016, published 2017).

Columns and labels:
[1] = tested on: human parathyroid adenoma cells; test: PTH secretion from freshly dispersed human parathyroid adenoma cells (intact PTH ELISA); assay type: cell-based; conditions: 30 min
Procedure: Dispersed primary human parathyroid cells were rested for 1 hr at 37° C. in keratinocyte-SFM media (Thermo Fisher Scientific#37010-022) supplemented with the manufacturer's provided media supplements, antibiotics and 1.25 mM Ca^2+. Cells were then centrifuged and transferred to KSFM media with various concentrations of Ca^2+, P-15 peptide, forskolin and volumetric equivalent of DMSO for 30 min at 37° C. Supernatants were collected by centrifugation at 10,000 rpm, 5 min at 4° C. and were stored in −80 for determination of intact PTH.
Human intact PTH (1-84) in cell supernatants was measured in a colorimetric ELISA assay (Immutopics International #60-3000).

HEK-CaSR cells = test: cAMP accumulation assay in HEK-CaSR cells; assay type: cell-based, human; conditions: activation of CaSR by 3 mM Ca^2+, forskolin-stimulated cells
[2] = tested on: tumor cells from tertiary hyperparathyroidism; test: PTH secretion from isolated tumor cells of tertiary hyperparathyroidism glands; assay type: cell-based, human
Procedure: (§1) FIG. 14A. Tertiary hyperparathyroidism following kidney transplantation. […] Isolated tumor cells from tertiary hyperparathyroidism gland A were stimulated with calcium (CaSR agonist) and P-15 peptide (GPR64 agonist) in vitro and PTH secretion was measured.
as §1, with “14B.” for “14A.”, “C” for “A”, “measured. Cells express very high levels of GPR64 and are unresponsive to calcium-mediated suppression of PTH secretion.” for “measured.”

[3] = tested on: P-15-induced CRE induction; test: P-15-induced CRE induction in GPR64-transfected HEK cells after preincubation with kinase inhibitors; assay type: cell-based, human; conditions: 1 hr preincubation (H-89 20 μM, U0126 10 μM) before 100 μM P-15 for 5 hrs
Procedure: FIG. 7. HEK cells were transfected with pCRE-Luc and GPR64 and were preincubated with DMSO (vehicle), H-89 (PKA inhibitor, 20 μM) or U0126 (MEK inhibitor, 10 μM) for 1 hr before stimulation with either DMSO or 100 μM P-15 peptide for 5 hrs. Luciferase assay data are normalized to vehicle-preincubated, DMSO stimulated cells. Data are mean±SD from 3 independent experiments conducted in triplicates. *: P<0.05, **: P<0.01.
HEK cells were seeded in white opaque 96-well plates (30,000 cell/well) and were transfected with pCRE-Luc (100 ng/well) along with different doses of empty or GPR64-expressing plasmids. Cell were either left untreated or stimulated with different concentrations of P-15 peptide for 5 hrs at 37° C. Luminescence was measured in a FLEXStationIII plate reader (Molecular Devices).

GPR64 [4] = target: T1, GPR64 (Homo sapiens, UniProt Q8IZP9); test: cAMP accumulation assay (ELISA) in HEK cells transfected with GPR64; assay type: cell-based; set-up: The human GPR64 variant 1 (full length with 1017 amino acids); expressed in transfected cells; host or cells: AD-293 (HEK) cells, transient transfection with pcDNA3.1-GPR64; conditions: 100 μM P-15, 30 min, 48 hrs post-transfection
Procedure: (§2) FIG. 2. (A) HEK cells were transfected with pCRE-Luc in combination with 200 ng of pcDNA3.1, GPR64 or GPR64ΔNTF plasmids and were stimulated with increasing concentrations of 15 amino acid-long human GPR64 peptide (P-15) for 5 hrs. Luciferase activity (CRE induction) was measured and data were normalized to the values of cells transfected with pcDNA3.1. Data are mean±SD from 3-4 independent experiments conducted in triplicates. (B) Forty eight hrs post-transfection with pcDNA3.1, GPR64 or GPR64ΔNTF plasmids, HEK cells were stimulated with DMSO (vehicle) or 100 μM P-15 peptide for 30 min and cAMP accumulation was measured in an ELISA assay at 405 nm. Data were corrected to the protein concentration in samples. Data are mean±SD from 3 independent experiments conducted in triplicates. *: P<0.05, ****: P<0.0001. (C) Freshly isolated human adenoma parathyroid cells were stimulated with increasing concentrations of Ca^2+ and P-15 or DMSO (vehicle) for 30 min and the concentration of secreted intact PTH was measured by ELISA. Data were normalized to the PTH secretion in vehicle-treated cells cultured in 0.5 mM Ca^2+. […] (D) Freshly isolated human adenoma parathyroid cells were stimulated with increasing concentrations of Ca^2+ and forskolin (FSK, 3 and 5 μM) or DMSO (vehicle) for 30 min and the concentration of secreted intact PTH was measured by ELISA. […]

GPR64ΔNTF [5] = target: T2, GPR64ΔNTF (Homo sapiens, UniProt Q8IZP9); test: CRE reporter gene assay (pCRE-Luc) in HEK cells transfected with GPR64ΔNTF; assay type: cell-based; conditions: increasing concentrations of P-15, 5 hrs
T2 construct: The human GPR64 variant 1 (full length with 1017 amino acids); expressed in transfected cells; host or cells: AD-293 (HEK) cells, transient transfection with pcDNA3.1-GPR64ΔNTF
Procedure: as §2, with “Data were corrected to the protein concentration in samples. Data are mean±SD from 3 independent experiments conducted in triplicates. *: P<0.05, ****: P<0.0001.” left out, “ELISA.” for “ELISA. Data were normalized to the PTH secretion in vehicle-treated cells cultured in 0.5 mM Ca^2+.”
(§3) HEK cells were seeded in white opaque 96-well plates (30,000 cell/well) and were transfected with pCRE-Luc (100 ng/well) along with different doses of empty or GPR64-expressing plasmids. […] Luminescence was measured in a FLEXStationIII plate reader (Molecular Devices).

GPR64 [6] = target: T1, GPR64; test: cAMP accumulation assay in HEK-CaSR cells transfected with GPR64; assay type: cell-based; set-up: The human GPR64 variant 1 (full length with 1017 amino acids); expressed in transfected cells; host or cells: HEK-CaSR cells (AD-293 clone stably expressing FLAG-tagged human CaSR), transient transfection with pcDNA3.1-GPR64; conditions: 100 μM P-15, 30 min, 1.25 or 3 mM Ca^2+
GPR64 [7] = target: T1, GPR64; test: CRE reporter gene assay (pCRE-Luc) in HEK cells transfected with GPR64; assay type: cell-based; set-up: The human GPR64 variant 1 (full length with 1017 amino acids); expressed in transfected cells; host or cells: AD-293 (HEK) cells, transient transfection with pcDNA3.1-GPR64; conditions: increasing concentrations of P-15, 5 hrs
Procedure: as §2, with “Data were corrected to the protein concentration in samples. Data are mean±SD from 3 independent experiments conducted in triplicates. *: P<0.05, ****: P<0.0001.” left out, “ELISA.” for “ELISA. Data were normalized to the PTH secretion in vehicle-treated cells cultured in 0.5 mM Ca^2+.”
as §3

GPR64ΔNTF [8] = target: T2, GPR64ΔNTF; test: cAMP accumulation assay in HEK-CaSR cells transfected with GPR64ΔNTF; assay type: cell-based; conditions: concomitant 3 mM Ca^2+ and 100 μM P-15

T1 sequence (Q8IZP9 38-1017): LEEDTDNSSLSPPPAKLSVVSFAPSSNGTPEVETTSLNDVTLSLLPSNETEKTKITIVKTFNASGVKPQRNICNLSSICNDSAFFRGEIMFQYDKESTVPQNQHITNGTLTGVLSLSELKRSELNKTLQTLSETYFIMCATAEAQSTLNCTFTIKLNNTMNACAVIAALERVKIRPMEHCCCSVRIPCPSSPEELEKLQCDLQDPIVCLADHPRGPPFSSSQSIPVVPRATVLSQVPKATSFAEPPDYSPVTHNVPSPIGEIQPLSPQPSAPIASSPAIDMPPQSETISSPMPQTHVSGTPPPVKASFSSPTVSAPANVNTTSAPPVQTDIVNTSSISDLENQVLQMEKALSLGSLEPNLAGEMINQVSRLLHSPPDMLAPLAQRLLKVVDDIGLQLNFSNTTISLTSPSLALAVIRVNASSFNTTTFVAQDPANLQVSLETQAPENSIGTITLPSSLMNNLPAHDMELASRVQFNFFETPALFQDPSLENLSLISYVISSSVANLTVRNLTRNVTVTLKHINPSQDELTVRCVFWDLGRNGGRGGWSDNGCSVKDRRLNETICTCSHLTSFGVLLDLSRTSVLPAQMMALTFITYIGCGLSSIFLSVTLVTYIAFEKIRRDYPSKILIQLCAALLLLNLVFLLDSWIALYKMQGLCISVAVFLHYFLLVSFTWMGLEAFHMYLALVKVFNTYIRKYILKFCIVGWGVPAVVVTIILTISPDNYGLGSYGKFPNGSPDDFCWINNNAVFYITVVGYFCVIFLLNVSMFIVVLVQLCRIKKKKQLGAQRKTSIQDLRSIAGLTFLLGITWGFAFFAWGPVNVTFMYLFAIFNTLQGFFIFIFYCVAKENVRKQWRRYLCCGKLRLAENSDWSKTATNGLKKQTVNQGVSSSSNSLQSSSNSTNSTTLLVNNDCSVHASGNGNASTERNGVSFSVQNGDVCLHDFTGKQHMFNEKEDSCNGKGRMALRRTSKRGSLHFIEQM
T2 sequence (Q8IZP9 607-1017 limits assumed, stated change not applied): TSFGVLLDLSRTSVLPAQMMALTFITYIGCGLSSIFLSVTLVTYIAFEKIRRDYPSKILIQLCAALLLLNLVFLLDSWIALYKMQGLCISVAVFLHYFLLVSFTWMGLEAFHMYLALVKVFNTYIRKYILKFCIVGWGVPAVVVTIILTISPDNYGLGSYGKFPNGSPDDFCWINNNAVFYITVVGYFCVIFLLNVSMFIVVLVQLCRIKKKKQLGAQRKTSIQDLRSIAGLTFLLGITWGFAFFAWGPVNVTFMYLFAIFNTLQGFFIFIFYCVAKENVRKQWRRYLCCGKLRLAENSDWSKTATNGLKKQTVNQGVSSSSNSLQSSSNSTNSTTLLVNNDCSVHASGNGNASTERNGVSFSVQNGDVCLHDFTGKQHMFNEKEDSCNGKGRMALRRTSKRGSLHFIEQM

[Ca+2].[Cl-].[Cl-] [Calcium, Calcium chloride, reference compound]
PTH secretion ([1]; increasing concentrations of Ca^2+): suppressed PTH secretion in a dose-dependent manner | cAMP level (HEK-CaSR cells): suppressed cAMP levels significantly | calcium-mediated suppression of PTH secretion ([2]; tertiary hyperparathyroidism gland C, cells express very high levels of GPR64): unresponsive

O=S(=O)(NCCNC/C=C/c1ccc(Br)cc1)c1cccc2cnccc12 [H-89]
effect on P-15-induced CRE induction [3]: blunted the P-15-induced CRE induction

N#CC(=C(/N)Sc1ccccc1N)/C(C#N)=C(\N)Sc1ccccc1N [U0126]
effect on P-15-induced CRE induction [3]: did not inhibit CRE induction

TSFGVLLDLSRTSVL [P-15, GPR64 agonist]
PTH secretion ([1]; P-15 with various concentrations of Ca^2+): elevated the PTH secretion | cAMP production (GPR64 [4]): specifically activates GPR64 to produce cAMP | CRE induction (luciferase activity) (GPR64ΔNTF [5]): concentration-dependent CRE induction | cAMP production (GPR64 [6]): increased cAMP production irrespective of CaSR activation with 3 mM Ca^2+ | CRE induction (luciferase activity) (GPR64 [7]; GPR64-transfected HEK cells): concentration-dependent CRE induction | CRE induction (luciferase activity) (GPR64 [7]; control cells (pcDNA3.1-transfected HEK)): absent | PTH secretion ([2]; tertiary hyperparathyroidism gland A, calcium plus P-15 in vitro): higher PTH secretion | intracellular cAMP (GPR64ΔNTF [8]): restored the intracellular cAMP to the level of cells activated only with P-15 in normocalcemic conditions
